Test results as given in US5866681A, “Thrombin receptor antagonists” (priority 1995, dated 1999).
Like-named read-outs stand apart in the source and are kept apart here. *1 amine or outer side, *2 acyl side, *3 side chain or, on linkers, in order; H or OH if unused. Where a SMILES comes first, the peptide text is derived from it. [ ]: non-standard residue; d: D form. The star is where a group is joined. X18 = CN(CC(c1ccccc1)c1ccccc1)[C@@H](Cc1ccccc1)C(=O)*; X25 = CN(Cc1ccc(-c2ccccc2)cc1)[C@@H](Cc1ccccc1)C(=O)*; X1 = CN(Cc1cccc(Oc2ccccc2)c1)[C@@H](Cc1ccccc1)C(=O)*; X16 = CCCCCN([C@@H](Cc1ccccc1)C(=O)[*:2])[*:1]; X12 = CCCCCN([C@H](Cc1ccccc1)C(=O)[*:2])[*:1]; X13 = CN(CC1CCCCC1)[C@@H](Cc1ccccc1)C(=O)*; X6 = CCCCCN(CCCCC)[C@@H](Cc1ccccc1)C(=O)*; X9 = CN(Cc1ccccc1)[C@@H](Cc1ccccc1)C(=O)*; Benzoyl(2-Ph) = O=C(c1ccccc1-c1ccccc1)*; X5 = CCCCCN(C)[C@@H](Cc1ccccc1)C(=O)*; X7 = CCCCCCC(Oc1ccc2ccccc2c1)C(=O)*; X20 = CCCCC(Oc1cccc2ccccc12)C(=O)*; Cha = N[C@@H](CC1CCCCC1)C(=O)O; X21 = CCCCC(Oc1ccccc1)C(=O)*

Target: T1, thrombin receptor (Homo sapiens, UniProt P25116)
T1 construct: washed human platelets are prepared from blood drawn from healthy volunteers; endogenous in cells; host or cells: washed human platelets from healthy volunteers
T1 sequence (P25116 22-425): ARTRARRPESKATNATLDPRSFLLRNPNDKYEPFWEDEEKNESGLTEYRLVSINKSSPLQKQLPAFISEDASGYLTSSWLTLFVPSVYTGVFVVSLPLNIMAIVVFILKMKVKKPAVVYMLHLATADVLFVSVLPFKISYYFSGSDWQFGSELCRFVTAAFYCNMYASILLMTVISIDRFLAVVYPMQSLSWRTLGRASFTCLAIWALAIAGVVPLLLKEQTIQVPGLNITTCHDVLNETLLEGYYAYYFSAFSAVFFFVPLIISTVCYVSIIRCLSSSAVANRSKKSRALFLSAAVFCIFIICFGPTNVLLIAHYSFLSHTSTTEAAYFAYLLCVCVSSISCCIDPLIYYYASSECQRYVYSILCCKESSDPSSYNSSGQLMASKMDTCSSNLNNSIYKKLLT
Test: Platelet aggregation assay for thrombin receptor antagonist activity (washed human platelets stimulated with α-thrombin)
Type: cell-based
Description: The compounds of the present invention may be tested for thrombin receptor antagonist activity by using a platelet aggregation assay. In this assay, washed human platelets are prepared from blood drawn from healthy volunteers who have not ingested any medications for two weeks prior to donation. Blood is drawn into 12.5% (vol/vol) ACD (85 mM sodium citrate, 111 mM dextrose, 71 mM citric acid) containing 0.1% (vol/vol) PGI2 (0.05 mg/mL PGI2, 100 mM Tris, pH 12). Platelet-rich plasma was obtained by centrifugation at 160×g for 20 minutes. The platelets were pelleted by centrifugation at 760×g for 10 minutes and resuspended in CGS (13 mM trisodium citrate, 120 mM sodium chloride, 30 mM dextrose, pH 7.0) containing 0.1% (vol/vol) PGI2, repelleted and resuspended in Tyrodes buffer (10 mM Hepes, 12 mM sodium bicarbonate, 138 mM sodium chloride, 5.5 mM glucose, 2.9 mM potassium chloride, 1.0 mM calcium chloride, pH 7.4) and stored at 37° C. Approximately 0.4-10 nM α-thrombin is used to stimulate platelet aggregation in control reactions which are monitored by aggregometry using an aggregometer. Candidate antagonists are added to the platelet mixture followed by the addition of thrombin in order to assess their ability to prevent thrombin-mediated aggregation.
Platelet aggregation can also be measured with washed platelets in 96-well microtiter plates as described in Fratantoni, J. C. et al., Am. J. Clin. Pathol. 94:613-617 (1990). The ability of the antagonists to block the thrombin receptor was assessed in this assay using various concentrations of antagonists. The concentration at which 50% inhibition of platelet aggregation is achieved is defined as IC50.

[1] = washed human platelets, thrombin-mediated aggregation, read-out: IC50 (concentration at which 50% inhibition of platelet aggregation is achieved)

IC50 [1] [µM] | Compound | IC50 [µM]
 | CCCCCN[C@@H](Cc1ccccc1)C(=O)N[C@@H](CC1CCCCC1)C(=O)N[C@@H](CC1CCCCC1)C(=O)N[C@@H](CCCNC(=N)N)C(=O)N[C@@H](CCCCN)C(N)=O [Compound 14] (H-[X16][Cha][Cha]RK-NH2) | 5
 | CCCCCN(C)[C@@H](Cc1ccccc1)C(=O)N[C@@H](CC1CCCCC1)C(=O)N[C@@H](CC1CCCCC1)C(=O)N[C@@H](CCCNC(=N)N)C(=O)N[C@@H](CCCCN)C(N)=O [Compound 15] (X5-[Cha][Cha]RK-NH2) | 10
 | CN(CC(c1ccccc1)c1ccccc1)[C@@H](Cc1ccccc1)C(=O)N[C@@H](CC1CCCCC1)C(=O)N[C@@H](CC1CCCCC1)C(=O)N[C@@H](CCCNC(=N)N)C(=O)N[C@@H](CCCCN)C(N)=O [Compound 16] (X18-[Cha][Cha]RK-NH2) | 10
15 | CN(Cc1cccc(Oc2ccccc2)c1)[C@@H](Cc1ccccc1)C(=O)N[C@@H](CC1CCCCC1)C(=O)N[C@@H](CC1CCCCC1)C(=O)N[C@@H](CCCNC(=N)N)C(=O)N[C@@H](CCCCN)C(N)=O [Compound 17] (X1-[Cha][Cha]RK-NH2) | 
5 | CN(Cc1ccc(-c2ccccc2)cc1)[C@@H](Cc1ccccc1)C(=O)N[C@@H](CC1CCCCC1)C(=O)N[C@@H](CC1CCCCC1)C(=O)N[C@@H](CCCNC(=N)N)C(=O)N[C@@H](CCCCN)C(N)=O [Compound 18] (X25-[Cha][Cha]RK-NH2) | 
30 | CN(Cc1ccccc1)[C@@H](Cc1ccccc1)C(=O)N[C@@H](CC1CCCCC1)C(=O)N[C@@H](CC1CCCCC1)C(=O)N[C@@H](CCCNC(=N)N)C(=O)N[C@@H](CCCCN)C(N)=O [Compound 19] (X9-[Cha][Cha]RK-NH2) | 
15 | CN(CC1CCCCC1)[C@@H](Cc1ccccc1)C(=O)N[C@@H](CC1CCCCC1)C(=O)N[C@@H](CC1CCCCC1)C(=O)N[C@@H](CCCNC(=N)N)C(=O)N[C@@H](CCCCN)C(N)=O [Compound 20] (X13-[Cha][Cha]RK-NH2) | 
10 | CCCCCN(CCCCC)[C@@H](Cc1ccccc1)C(=O)N[C@@H](CC1CCCCC1)C(=O)N[C@@H](CC1CCCCC1)C(=O)N[C@@H](CCCNC(=N)N)C(=O)N[C@@H](CCCCN)C(N)=O [Compound 21, (N,N-di-n-pentyl-Phe)-Cha-Cha-Arg-Lys-NH2] (X6-[Cha][Cha]RK-NH2) | 
 | CCCCCN[C@H](Cc1ccccc1)C(=O)N[C@@H](CC1CCCCC1)C(=O)N[C@@H](CC1CCCCC1)C(=O)N[C@@H](CCCNC(=N)N)C(=O)N[C@@H](CCCCN)C(N)=O [Compound 22] (H-[X12][Cha][Cha]RK-NH2) | 25
5 | CCCCCCC(Oc1ccc2ccccc2c1)C(=O)N[C@@H](CC1CCCCC1)C(=O)N[C@@H](CC1CCCCC1)C(=O)N[C@@H](CCCNC(=N)N)C(=O)N[C@@H](CCCCN)C(N)=O (some centres unmarked) [Compound 23] (X7-[Cha][Cha]RK-NH2) | 
15 | CCCCC(Oc1ccccc1)C(=O)N[C@@H](CC1CCCCC1)C(=O)N[C@@H](CC1CCCCC1)C(=O)N[C@@H](CCCNC(=N)N)C(=O)N[C@@H](CCCCN)C(N)=O (some centres unmarked) [Compound 24] (X21-[Cha][Cha]RK-NH2) | 
25 | N=C(N)NCCC[C@H](NC(=O)[C@H](CC1CCCCC1)NC(=O)[C@H](CC1CCCCC1)NC(=O)c1ccccc1-c1ccccc1)C(=O)N[C@@H](CCCCN)C(N)=O [Compound 25] ({Benzoyl(2-Ph)}-[Cha][Cha]RK-NH2) | 
7.5 | CCCCCC/C(=C\c1ccccc1)CN[C@@H](CC1CCCCC1)C(=O)N[C@@H](CC1CCCCC1)C(=O)N[C@@H](CCCNC(=N)N)C(=O)N[C@@H](CCCCN)C(N)=O [Compound 26] | 
5 | CCCCC(Oc1cccc2ccccc12)C(=O)N[C@@H](CC1CCCCC1)C(=O)N[C@@H](CC1CCCCC1)C(=O)N[C@@H](CCCNC(=N)N)C(=O)N[C@@H](CCCCN)C(N)=O (some centres unmarked) [Compound 27] (X20-[Cha][Cha]RK-NH2) | 
